Measured values taken from patent US20030234356A1, “Method and apparatus for the detection of noncovalent interactions by mass spectrometry-based diffusion measurements” (priority 2002, published 2003).
Entries after “also recorded” stand apart in the source; their conditions may differ.

Legend:
lysozyme = target: T1, lysozyme (Gallus gallus, UniProt P00698); assay: ESI-MS Taylor dispersion screen of a mixture of six sugars for noncovalent binding to lysozyme; conditions: six sugars monitored simultaneously
T1 construct: purchased Sigma (St. Louis, Mo.)
Procedure: (§1) Based on the theoretical considerations described above, we will now describe details of an apparatus that allows the measurement of dispersion profiles by ESI-MS or APCI-MS. A schematic diagram of the apparatus is shown generally at 10 in FIG. 2. The measurements described below were carried out by using a 3.013 m long Teflon laminar flow tube (Upchurch, Oak Harbor, Wash.) shown as LFT or 12 in FIG. 2. The inner diameter (i.d.) of this LFT was determined gravimetrically to be 258.2 μm. In order to measure a diffusion coefficient, a sharp initial boundary must be created between the carrier solution and the following analyte solution at the entrance of the flow tube (Equation 3). This was accomplished by using a valve mechanism shown in FIG. 2 as a “sliding block mechanism (SBM)” 14 developed by the inventors. The laminar flow tube (LFT) 12 is inserted into a Teflon block machined to accommodate a PEEK connector and ferrule (Upchurch, Oak Harbor, Wash.) so that the flow tube 12 extends through to the end of the block. Initially, the entrance to the flow tube 12 is aligned with an opening in a steel block into which a piece of PEEK tubing 16 (508 μm ID, length ≈0.5 m) is fitted, using another PEEK connector and ferrule. This second piece of tubing 16 is used as the inlet tube, forming a leak-proof connection between the inlet tube and the flow tube at the boundary between the steel and Teflon blocks.
An analyte reservoir 18 (shown as a syringe in FIG. 2 which also acts as a pump) connected to the inlet tube 16 can be used to fill the inlet tube 16 with analyte solution, and to pump this analyte solution through the LFT 12. Initially, however, a carrier solution reservoir (not shown) is connected to tube 16 for filling the laminar flow tube 12 with carrier solution. The analyte solution and carrier solution reservoirs are never connected to the laminar flow tube 16 at the same time. Subsequently, the Teflon block containing the flow tube is moved sideways, such that the two tubes 12 and 16 are no longer aligned and the entrance to the flow tube 12 is closed off by the steel block. The inlet tube 16 can now be filled with analyte solution from pump 18 (syringe S1) without disturbing the carrier solution in the flow tube 12. Then the Teflon block is returned to its original position, aligning the two tubes (12 and 16) and creating a sharp boundary between the analyte solution in the inlet tube and the carrier solution in the LFT 12. The i.d. of the inlet tube 16 was chosen to be larger than that of the flow tube 12 to ensure that the boundary between the two solutions would cover the entire cross-sectional area of the flow tube 12, even if the sliding block were slightly misaligned. […]

apo-myoglobin = target: T2, apo-myoglobin (Equus caballus, UniProt P68082); assay: ESI-MS Taylor dispersion (diffusion) measurement of noncovalent heme-protein binding in myoglobin; conditions: for noncovalent binding of heme to the protein: 24±1° C
T2 construct: purchased Sigma (St. Louis, Mo.)
Procedure: as §1
An analyte reservoir 18 (shown as a syringe in FIG. 2 which also acts as a pump) connected to the inlet tube 16 can be used to fill the inlet tube 16 with analyte solution, and to pump this analyte solution through the LFT 12. Initially, however, a carrier solution reservoir (not shown) is connected to tube 16 for filling the laminar flow tube 12 with carrier solution. The analyte solution and carrier solution reservoirs are never connected to the laminar flow tube 16 at the same time. Subsequently, the Teflon block containing the flow tube is moved sideways, such that the two tubes 12 and 16 are no longer aligned and the entrance to the flow tube 12 is closed off by the steel block. The inlet tube 16 can now be filled with analyte solution from pump 18 (syringe S1) without disturbing the carrier solution in the flow tube 12. Then the Teflon block is returned to its original position, aligning the two tubes (12 and 16) and creating a sharp boundary between the analyte solution in the inlet tube and the carrier solution in the LFT 12. The i.d. of the inlet tube 16 was chosen to be larger than that of the flow tube 12 to ensure that the boundary between the two solutions would cover the entire cross-sectional area of the flow tube 12, even if the sliding block were slightly misaligned. The use of a commercially available HPLC injection valve with a sample loop of suitable size may serve the same purpose as the described sliding block mechanism.
For the four examples given below, the analyte solution from syringe S1 is pumped through the laminar flow tube by using a Harvard syringe pump (South Nattick, Mass.). The outlet of the flow tube 12 is connected to two fused silica capillaries 26 and 28 (i.d. 100 μm, o.d. 165 μm, Polymicro Technologies, Phoenix, Ariz.) at a mixer 30 located at the end of tube 12. The first of these capillaries 26 has a length of 5 cm and is connected to the ESI source of the mass spectrometer 22. For studies on myoglobin, the second capillary 28 was used to supplement the analyte near the end of the laminar flow tube 12 with a methanol/acetic acid (90:10 v/v) mixture from syringe S2 just before it reached the ESI ion source. This “make-up” solvent was delivered at a flow rate of 5 μL/min, for a total flow rate of 10 μL/min at the ion source. The residence time of the analyte solution in the final 5 cm capillary was only about 2 s and can therefore be neglected for the analysis (the value of l/{overscore (v)} is 1929 s). […]

[1] = absence vs presence of lysozyme
[2] = denaturing conditions (50% acetonitrile, pH 10)
[3] = native-like solvent conditions (no organic cosolvents, pH 10)
[4] = semi-denaturing conditions (30% acetonitrile, pH 10)

T1 sequence (P00698 19-147): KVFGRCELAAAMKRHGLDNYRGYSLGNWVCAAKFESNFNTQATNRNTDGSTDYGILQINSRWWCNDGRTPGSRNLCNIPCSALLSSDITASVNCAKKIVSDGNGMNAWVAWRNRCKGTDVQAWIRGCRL
T2 sequence (P68082 2-154 limits assumed): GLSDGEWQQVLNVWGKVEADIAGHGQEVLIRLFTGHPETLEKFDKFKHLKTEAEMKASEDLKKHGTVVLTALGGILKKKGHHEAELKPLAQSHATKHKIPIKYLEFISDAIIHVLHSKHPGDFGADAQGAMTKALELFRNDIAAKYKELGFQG

Row | Compound | change in dispersion profile when the protein was added (lysozyme; [1]) | change of apparent diffusion coefficient upon addition of the protein (lysozyme; absence vs presence of lysozyme, average of about ten measurements) | noncovalent binding to lysozyme (lysozyme; without and with lysozyme) | fitted diffusion coefficient of heme compared with that of the protein in myoglobin solution (apo-myoglobin; [2]) | noncovalent binding of heme to the protein (apo-myoglobin; [2]) | fitted diffusion coefficient of heme compared with that of the protein in myoglobin solution (apo-myoglobin; [3]) | noncovalent binding of heme to the protein (apo-myoglobin; [3]) | fitted diffusion coefficient of heme compared with that of the protein in myoglobin solution (apo-myoglobin; [4]) | noncovalent binding of heme to the protein (apo-myoglobin; [4])
1 | CC(=O)N[C@H]1[C@H](O[C@H]2[C@H](O)[C@@H](NC(C)=O)C(O)O[C@@H]2CO)O[C@H](CO)[C@@H](O[C@@H]2O[C@H](CO)[C@@H](O)[C@H](O)[C@H]2NC(C)=O)[C@@H]1O (stereo partly shown) [chitotriose] | distinct change | dramatic reduction; also recorded: significant change | binds noncovalently to lysozyme | – | – | – | – | – | –
2 | C=CC1=C(C)c2cc3[n-]c(cc4[n-]c(cc5nc(cc1n2)C(C)=C5C=C)c(C)c4CCC(=O)O)c(CCC(=O)O)c3C.[Fe+2] [heme] | – | – | – | much larger diffusion coefficient | absent or extremely weak | agree closely with each other | noncovalently bound to the protein | almost identical | still bound to each other
3 | C[C@H](O)[C@H](O)[C@@H](O)[C@@H](O)C=O [rhamnose] | virtually no change | – | – | – | – | – | – | – | –
